Series [1] can be described thus: Drug level in C57Bl6 mouse plasma at 10 mg/kg, iv after 30 mins by UV-reverse phase HPLC analysis. The settings on record: read-out: Drug uptake. Further details: dose 10 mg/kg, route intravenous. In kind it is ADME, organism-based.
A short description of series [2]: Drug level in C57Bl6 mouse bile at 100 mg/kg, po after 2 hrs by HPLC/MS analysis. Type of series: ADME, organism-based. Further details: dose 100 mg/kg, route oral. Particulars: read-out: Drug uptake.
Series [3] can be described thus: Drug level in C57Bl6 mouse plasma at 10 mg/kg, po after 1 hr by UV-reverse phase HPLC analysis. Further details: dose 10 mg/kg, route oral. In kind it is ADME, organism-based. Particulars: read-out: Drug uptake.
Series [4] is described as follows: Drug level in C57Bl6 mouse plasma at 10 mg/kg, po after 2 hrs by UV-reverse phase HPLC analysis. Type of series: ADME, organism-based. Further details: dose 10 mg/kg, route oral. Particulars: read-out: Drug uptake.
Series [5] can be described thus: Drug level in C57Bl6 mouse bile at 10 mg/kg, iv after 30 mins by HPLC/MS analysis. Particulars: read-out: Drug uptake. In kind it is ADME, organism-based. Also on record: dose 10 mg/kg, route intravenous.
Series [6] is described as follows: Drug level in C57Bl6 mouse plasma at 100 mg/kg, po after 1 hr by UV-reverse phase HPLC analysis. Particulars: read-out: Drug uptake. Also on record: dose 100 mg/kg, route oral. In kind it is ADME, organism-based.
The nature of series [7]: Drug level in C57Bl6 mouse plasma at 10 mg/kg, iv after 5 mins by UV-reverse phase HPLC analysis. In kind it is ADME, organism-based. Further details: dose 10 mg/kg, route intravenous. Particulars: read-out: Drug uptake.
The nature of series [8]: Drug level in C57Bl6 mouse plasma at 100 mg/kg, po after 2 hrs by UV-reverse phase HPLC analysis. In kind it is ADME, organism-based. Further details: dose 100 mg/kg, route oral. Particulars: read-out: Drug uptake.
Series [9] is described as follows: Partition coefficient, log P at 5 mM by reverse phase HPLC analysis. In kind it is physicochemical. The settings on record: octanol/water.
The test system of series [10] is Mus musculus. The series is described as follows: Antiinflammatory activity in BALB/c mouse assessed as inhibition of benzalkonium chloride-induced ear edema at 0.1 to 1 mg/ear administered topically after 10 mins of benzalkonium chloride challenge measured after 7 hrs of induction of dermatitis. In kind it is functional, organism-based.
Series [11] has as its system Mus musculus. The series is described as follows: Antiinflammatory activity in BALB/c mouse assessed as inhibition of benzalkonium chloride-induced ear edema at 0.1 to 1 mg/ear administered topically after 10 mins of benzalkonium chloride challenge measured after 5 hrs of induction of dermatitis. Type of series: functional, organism-based.
Series [12] concerns Mus musculus. The series is described as follows: Antiinflammatory activity in BALB/c mouse assessed as inhibition of benzalkonium chloride-induced ear edema at 0.1 to 1 mg/ear administered topically after 10 mins of benzalkonium chloride challenge measured after 1 hr of induction of dermatitis. Type of series: functional, organism-based.
For series [13], the target named is T1, 85/88 kDa calcium-independent phospholipase A2 (Rattus norvegicus) (UniProt P97570).
T1 sequence (whole entry): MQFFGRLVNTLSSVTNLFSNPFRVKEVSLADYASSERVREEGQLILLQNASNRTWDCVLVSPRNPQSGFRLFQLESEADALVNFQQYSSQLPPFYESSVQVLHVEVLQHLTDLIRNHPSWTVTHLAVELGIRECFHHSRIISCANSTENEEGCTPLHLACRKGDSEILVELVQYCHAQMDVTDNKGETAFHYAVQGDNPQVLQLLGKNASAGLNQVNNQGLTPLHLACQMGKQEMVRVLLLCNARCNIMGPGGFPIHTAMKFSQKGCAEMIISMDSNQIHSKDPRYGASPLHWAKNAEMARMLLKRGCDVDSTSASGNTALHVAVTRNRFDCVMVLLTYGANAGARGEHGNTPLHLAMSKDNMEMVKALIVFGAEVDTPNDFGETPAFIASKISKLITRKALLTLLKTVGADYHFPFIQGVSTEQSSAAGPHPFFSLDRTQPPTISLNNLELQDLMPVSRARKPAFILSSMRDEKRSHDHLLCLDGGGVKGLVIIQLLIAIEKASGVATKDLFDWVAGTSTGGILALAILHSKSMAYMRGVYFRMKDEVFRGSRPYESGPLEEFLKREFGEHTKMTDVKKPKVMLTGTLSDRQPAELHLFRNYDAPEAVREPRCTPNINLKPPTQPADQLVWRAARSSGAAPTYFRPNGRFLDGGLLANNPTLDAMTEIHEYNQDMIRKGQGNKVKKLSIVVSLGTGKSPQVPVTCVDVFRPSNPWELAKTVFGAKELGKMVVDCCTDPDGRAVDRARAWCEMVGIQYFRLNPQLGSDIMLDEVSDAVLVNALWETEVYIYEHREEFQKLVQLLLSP
The series is described as follows: Inhibition of Sprague-Dawley rat brain iPLA2 assessed as inhibition of substrate cleavage at 10 uM after 60 mins by HPLC analysis.

For series [14], the system named is Mus musculus. The series is described as follows: Antiinflammatory activity in BALB/c mouse assessed as inhibition of benzalkonium chloride-induced ear edema at 0.01 mg/ear administered topically after 10 mins of benzalkonium chloride challenge measured after 5 to 7 hrs of induction of dermatitis. In kind it is functional, organism-based.
Series [15] has as its system Mus musculus. The series is described as follows: Antiinflammatory activity in topically dosed BALB/c mouse assessed as inhibition of benzalkonium chloride-induced ear edema administered after 10 mins of benzalkonium chloride challenge measured after 1 to 7 hrs of induction of dermatitis. In kind it is functional, organism-based.
A short description of series [16]: Inhibition of TPA-induced cPLA2alpha in human platelets assessed as inhibition of arachidonic acid production after 60 mins by UV-reverse phase HPLC analysis. The settings on record: 1 h.
The test system of series [17] is Mus musculus. The series is described as follows: Antiinflammatory activity in BALB/c mouse assessed as inhibition of benzalkonium chloride-induced ear edema at 0.1 mg/ear administered topically after 10 mins of benzalkonium chloride challenge measured after 7 hrs of induction of dermatitis. In kind it is functional.
The target in series [18] is Phospholipase A2, major isoenzyme (Sus scrofa) (UniProt P00592). The series is described as follows: Inhibition of pig pancreas group 1B sPLA2 assessed as inhibition of POPG cleavage at 10 uM after 30 mins by HPLC analysis.
Series [19] relates to Mus musculus. The series is described as follows: Antiinflammatory activity in BALB/c mouse assessed as inhibition of benzalkonium chloride-induced ear edema at 0.005 mg/ear administered topically after 10 mins of benzalkonium chloride challenge measured after 7 hrs of induction of dermatitis. In kind it is functional.

Consider 2 molecules from ChEMBL document CHEMBL1155440, “1-(5-carboxyindol-1-yl)propan-2-one inhibitors of human cytosolic phospholipase A(2)alpha with reduced lipophilicity: synthesis, biological activity, metabolic stability, solubility, bioavailability, and topical in vivo activity” (J Med Chem, 2010).

Calls of active or inactive are those of the source. No cut-off for these calls is given here.

Sequence of Phospholipase A2, major isoenzyme (Sus scrofa) (P00592 23-146 limits assumed): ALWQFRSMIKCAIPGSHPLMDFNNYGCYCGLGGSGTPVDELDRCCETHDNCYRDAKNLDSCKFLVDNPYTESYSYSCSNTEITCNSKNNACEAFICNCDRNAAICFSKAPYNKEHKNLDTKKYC

Regarding `CC(C)C(=O)c1cn(CC(O)COc2ccc(Oc3ccccc3)cc2)c2ccc(C(=O)O)cc12` (centres undefined), the concentration at 0.5 h was determined as 500 ng/mL in series [1] and 96000 ng/mL in series [5]. In addition, the concentration at 2 h in [2] stood at 42000 ng/mL; in [4], 34000 ng/mL; in series [8], 300 ng/mL. The figures for the concentration at 1 h in series [3] and in series [6] were 42000 ng/mL and 1700 ng/mL, respectively. In addition, the concentration at 5 min in series [7] was determined as 6200 ng/mL.

As to `CC(C)C(=O)c1cn(CC(=O)COc2ccc(Oc3ccccc3)cc2)c2ccc(C(=O)O)cc12`, in [9], the logP at 5000 µM amounted to 3.5. Further, the inhibition entry with Mus musculus [10], in the series on Mus musculus [11] and in the series with Mus musculus [12] was “Active” each time. Besides, the inhibition entry (in series [13]; in the series on Mus musculus [14]; in [18]) was “inactive” throughout. Moreover, the inhibition result in the series on Mus musculus [15] was “Dose-dependent effect”. For the same molecule, the 50% inhibitory concentration (IC50) in [16] was 15 nM. In addition, the results for the “inhibition (INH)” value with Mus musculus [17] and with Mus musculus [19] were 84% and 90%, respectively.

What is called logP is the decadic logarithm of the partition coefficient of the neutral form, usually between octanol and water. A higher logP goes with higher lipophilicity. In general, IC50 refers to the concentration needed to halve the response being measured.
